{
  "source": "patent US20020039780A1",
  "about": "“Salicyclic acid inducible genes and promoters” (priority 1998, published 2002)",
  "format_in_all_cases": "cell-based",
  "key": {"IEGT-Luc2 lines": {"tested_on": "IEGT-Luc2 lines", "assay": "Promoter-luciferase reporter activity in leaves of transgenic tobacco", "conditions": "leaf halves infiltrated with 1 mM SA or water for 4-12 hours; all ten lines", "procedure": "(§1) FIG. 8. A. Schematic representation of the set-up of the experiment investigating SA-inducible gene expression in plants carrying a promoter-luciferase reporter construct. Parts of the leaves of transgenic plants are harvested, split and one half treated by infiltration by SA. The other half is treated with water. Then both halves are sprayed with luciferin solution and tested for luminescence. B. Results of the experiment using leaves of tobacco transgenic for the IEGT/G1-1 promoter-luciferase reporter construct. On the picture, the lefthand side of the leave was infiltrated with SA, the right hand side infiltrated with water. Increased luminescence is indicated by the lighter colors.\n(§2) Amplified fragments were digested with BamHI and HindIII and subcloned into BamHI and HindIII-digested vector VIP11•-FFLuc (Anderson et al., 1994, Plant J. 4, 457-470) containing the firefly luciferase gene. This vector positions the promoter sequences directly upstream the promoterless FFLuc gene. […]\n(§3) Leaves of primary transformants or S1 progeny were tested for reporter gene activity by excising halves of the leaves, splitting and infiltration with either water or 1 mM SA for 4-12 hours. Leaves were then sprayed with the reporter substrate luciferin (1 mM luciferin with 0.1% Triton X-100 in water) and the luminescence counted by video-imaging and quantitation equipment (schematically shown in FIG. 8A)."}, "IEGT-Luc1 lines": {"tested_on": "IEGT-Luc1 lines", "assay": "Promoter-luciferase reporter activity in leaves of transgenic tobacco", "conditions": "leaf halves infiltrated with 1 mM SA for 4-12 hours; six out of ten lines", "procedure": "as §1, §2, §3"}, "C18-1/EREBP1": {"tested_on": "C18-1/EREBP1", "assay": "Northern analysis of mRNA accumulation in cultured tobacco cells", "procedure": "(§4) FIG. 2. Time course of SA-induced gene expression. Northern analysis of representative differential display genes following treatment of cultured tobacco cells with SA for the indicated time (in hours, except lanes 2-4, which refer to 10, 20, and 30 min.). Twenty micrograms of total RNA was loaded per lane. Blots were hybridized with ddPCR fragments indicated at right or with the β-ATPase gene as a loading control probe. Autoradiogram exposure times were optimized for each gene. […] Labels on left indicate response class.\n(§5) FIG. 4. Specificity of induction among SA analogs and other signalling compounds. Northern analysis of representative differential display genes following treatment of tobacco cells with 100 μM or 1 mM (left and right side of triangles, respectively) of the following chemicals for 2-2.5 hr: salicylic acid (SA, lanes 4 and 5), acetylSA (ASA, lanes 6 and 7), benzoic acid (BA, lanes 8 and 9), 4-hydroxybenzoic (4HBA, lanes 10 and 11), thiamine (thia, lanes 12 and 13), methyljasmonate (MJ, lanes 14 and 15), abscisic acid (ABA, lanes 16 and 17), or 2,4-dichlorophenoxyacetic acid (2,4-D, lanes 18 and 19). Control treatments are H2O (H, lane 1), 1% ethanol (E, solvent concentration in MJ treatments, lane 2), or 1% DMSO (D, solvent concentration in 2,4D treatments, lane 3). Blots were hybridized with ddPCR fragments indicated at right or with the β-ATPase geneas a loading control probe. Autoradiogram exposure times were optimized for each gene. […] Labels on left indicate response class.\n(§6) FIG. 5. Dose response of C18-1 and G8-1 to a range of chemicals. Northern analysis of tobacco cell cultures with eight concentrations of SA, ASA, BA, 4HBA, Thia, MJ, ABA, 2,4-D, or H2O for 2-2.5 hr. Concentrations were 0.1, 1, 3, 10, 30, 100, 300 μM or […], as indicated.\n(§7) FIG. 6. […] Graphic representation of mRNA accumulation of G8-1 ( ), C18se -1 (♦), and IEGT (o) in response to a 2-2.5 hr incubation of cultured tobacco cells with a range of SA concentrations. RNA gel blots were quantitated by phosphorimaging analysis and normalized relative to the β-ATPase gene loading control (not shown).\n(§8) Differential display technology (Liang, P. and Pardee, A. B., Science 257: 967-971, 1992) was used to identify genes activated in the presence of SA, CHX and both. Therefore the absence or presence of SA, induction at 3 timepoints of SA-treatment, 2 different concentrations of SA and the effect of addition of CHX were measured. Seven treatments in total were performed. Treatment of tobacco BY-2 suspension cells and leaves and differential display PCR reactions were performed as described (Horvath and Chua (1996), Plant Mol. Biol. 31, 1061-1072).\nThe kinetics of induction were examined in detail through time course experiments for representative clones of each class (FIG. 2).\nThe specificity for induction by SA was tested by treating tobacco cells with a range of SA analogs and plant signalling compounds at 0.1 and 1 mM for approximately 2.5 h. […] Several genes, including those for proteinase inhibitors and lipoxygenase (Hildmann, T. et al., Plant Cell 4: 1157-1170, 1992; Melan, M. A. et al., Plant Physiol. 101: 441-450, 1993; Xu, D. et al., Plant Mol. Biol. 22: 573-588, 1993) are known to be under dual regulation by MJ and ABA.\nA dose-response curve was made for SA. Therefore tobacco cells were treated with SA in a range of concentrations from 0.1 μM to 2 mM."}, "G8-1 [1]": {"tested_on": "G8-1", "assay": "Northern analysis of mRNA accumulation in cultured tobacco cells", "procedure": "FIG. 1. […] Northern analysis of genes identified by differential display. Gel-purified DNA fragments produced by ddPCR were either used directly for random-primed labeling and probing of Northern filters (e.g. C7-1, C6-1, and G9-2) or first subcloned and released by restriction digest. Each lane contains 1 μg of poly(A) mRNA from cultured tobacco cells treated with (1) H2O, 4 hr; (2) 200 μM SA, 4 hr; (3) 71 μM CHX, 5 hr; (4) 71 μM CHX, 5 hr plus 200 μM SA after 1 hr (4 hr total); (5) 20 μM SA, 2 hr; (7) 200 μM SA, 8 hr.\nas §4, §5, §6, §7, §8\nThe specificity for induction by SA was tested by treating tobacco cells with a range of SA analogs and plant signalling compounds at 0.1 and 1 mM for approximately 2.5 h."}, "G8-1 [2]": {"tested_on": "G8-1", "assay": "Northern analysis of mRNA accumulation in cultured tobacco cells", "conditions": "SA 0.1 μM to 2 mM"}, "[3]": {"conditions": "0.1 and 1 mM, approximately 2.5 h"}},
  "data": [
    {"compound": "O=C(O)c1ccccc1O", "note": "[SA, salicylic acid]", "values": [
      {"measurement": "luciferase activity", "setting": "IEGT-Luc2 lines", "result": "only baseline activity"},
      {"measurement": "SA-induced luciferase expression over controls", "setting": "IEGT-Luc1 lines", "result": "2.3-6 fold"},
      {"measurement": "C18-1/EREBP1 induction at 0.1 mM versus 1 mM", "setting": "C18-1/EREBP1; [3]", "result": "greater induction at 1mM"},
      {"measurement": "EC50", "setting": "C18-1/EREBP1; Nicotiana tabacum, tobacco cells, SA 0.1 μM to 2 mM, 2-2.5 hr, read-out: concentration of SA required for half of the maximum level of C18-1/EREBP1 expression", "result": "100 to 150", "unit": "µM"},
      {"measurement": "response zone of C18-1/EREBP1 to SA concentration", "setting": "C18-1/EREBP1; SA 0.1 μM to 2 mM", "result": "narrow response zone"},
      {"measurement": "time of decay of C18-1/EREBP1 mRNA to background levels", "setting": "C18-1/EREBP1; SA time course", "result": "≤ 4.5", "unit": "h"},
      {"measurement": "time of peak C18-1/EREBP1 mRNA", "setting": "C18-1/EREBP1; SA time course", "result": 2, "unit": "h"},
      {"measurement": "G8-1 mRNA levels at 20 μM SA", "setting": "G8-1 [1]; 20 μM SA", "result": "comparable to those at 200 μM"},
      {"measurement": "G8-1 induction at 0.1 mM versus 1 mM", "setting": "G8-1 [1]; [3]", "result": "equal or greater induction at 0.1 mM versus 1 mM"},
      {"measurement": "mRNA induction of G8-1 (class III)", "setting": "G8-1 [1]; SA at 2, 4, 8 h, 71 μM CHX 5 hrs", "result": "rapid mRNA induction"},
      {"measurement": "time at which G8-1 is first detected", "setting": "G8-1 [1]; SA time course", "result": "30 to 60", "unit": "min"},
      {"measurement": "time at which G8-1 reaches a plateau", "setting": "G8-1 [1]; SA time course", "result": "2 to 2.5", "unit": "h"},
      {"measurement": "time for which G8-1 plateau is maintained", "setting": "G8-1 [1]; SA time course", "result": "at least 12 h"},
      {"measurement": "EC50", "setting": "G8-1 [2]; Nicotiana tabacum, tobacco cells, 2-2.5 hr, read-out: concentration of SA required for half of the maximum level of G8-1 expression", "result": "~1", "unit": "µM"},
      {"measurement": "response of G8-1 expression to SA concentration range", "setting": "G8-1 [2]", "result": "activated over a large SA concentration range"}
    ]}
  ]
}
